Where a name gives a salt, the structure may show the parent alone. Read-outs that look alike come from different tables or passages of the source. Non-standard residues stand in square brackets, D forms with d. Residues, ends and D or L forms follow the SMILES beside them. Phe(4-Cl) = N[CH](Cc1ccc(Cl)cc1)C(=O)O; 2Nal = N[CH](Cc1ccc2ccccc2c1)C(=O)O; 3Pal = N[CH](Cc1cccnc1)C(=O)O
Tests used:
[1] = biological target: T1, immobilized human serum albumin (HSA) (Homo sapiens, UniProt P02768); experiment: Drug-protein binding screening by HPLC on immobilized HSA column (HSA-HPLC); details: 0.5 mL/min
Procedure: (§1) Compounds were dissolved with water or water-ethanol (with different ratio) to a concentration of 100 µg/mL. The chromatographic peak was attained on a 5 μm Chiral-HSA, 50 × 3 mm column (Chrom Tech, France), which was preceded by an on-line filter. The ChemStation for LC 3D software was used for data acquiring and handling. As a generic rapid method, an isocratic mobile phase was selected. To simulate physiology environment, a mobile phase consisting of 0.9% NaCl (pH 7.0) at a flow rate of 0.5 mL/min was used. 10 µL aliquot of analyte solution was injected to HPLC to be analyzed.

[2] = tested on: plasma proteins; details: cited from earlier work
[3] = biological target: T1, immobilized human serum albumin (HSA); details: pH 7
Procedure: as §1

[4] = tested on: plasma proteins; experiment: in vitro
Procedure: (§2) PPB Experiment for Test Compounds by Ultrafiltration
(§3) The stock solution (1.0 or 2 mg/mL) of test compounds was prepared by dissolving appropriate amount of compounds in water-methanol (50 : 50, v/v) mixture. Working solution (1, 10 or 100 μg/mL) was attained by diluted stock solution with water. A different volume of the working solution was added to a 2 mL eppendorf vial and evaporated to dryness under a stream of nitrogen in the thermostatically controlled water bath maintained at 55°C for about 20 min. […] The mixture was incubated at 37°C for 30 min. […] The filtrate was analyzed for the drug content by HPLC-MS.
(§4) The concentration of the filtrate was analyzed by HPLC-MS. […] The PPB by ultrafiltration was performed in triplicates for all the compounds studied.

[5] = tested on: plasma proteins; experiment: PPB experiment by ultrafiltration; details: plasma, 10, 40, 200, 100, 2000, 100 ng/mL for A, B, C, D, E, F, 37°C 30 min, Microcon YM-30, triplicates; for fraction unbound at 30 min: plasma, PPB by ultrafiltration
Procedure: as §2, §3, §4

[6] = biological target: human serum albumin (HSA) (Homo sapiens, UniProt P02768); experiment: Drug-protein binding screening by HPLC on immobilized HSA column (HSA-HPLC); details: human, pH 7
Procedure: as §1

[7] = reference compounds, Chiral-HSA 50 × 3 mm column, mobile phase 0.9% NaCl (pH 7.0), 100 µg/mL, 10 µL injected
[8] = reported PPB values of reference compounds, ref not printed
[9] = test compounds, Chiral-HSA column, 0.9% NaCl (pH 7.0)

T1 sequence (P02768 25-609): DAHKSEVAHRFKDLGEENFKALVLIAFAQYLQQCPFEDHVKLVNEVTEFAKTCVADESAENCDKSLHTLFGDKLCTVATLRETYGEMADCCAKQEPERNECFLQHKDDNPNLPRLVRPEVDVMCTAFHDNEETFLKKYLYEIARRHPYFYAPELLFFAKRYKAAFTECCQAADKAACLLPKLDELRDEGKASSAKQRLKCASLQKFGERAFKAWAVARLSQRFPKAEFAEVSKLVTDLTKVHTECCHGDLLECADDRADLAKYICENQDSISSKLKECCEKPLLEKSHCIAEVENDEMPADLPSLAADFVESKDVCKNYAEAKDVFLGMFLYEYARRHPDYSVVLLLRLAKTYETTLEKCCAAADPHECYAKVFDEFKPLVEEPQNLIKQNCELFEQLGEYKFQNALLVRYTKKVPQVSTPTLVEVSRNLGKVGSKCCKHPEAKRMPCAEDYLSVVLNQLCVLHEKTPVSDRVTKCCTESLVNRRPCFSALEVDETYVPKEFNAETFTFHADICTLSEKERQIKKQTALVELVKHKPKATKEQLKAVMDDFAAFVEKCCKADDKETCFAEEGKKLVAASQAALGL
Chain of human serum albumin (HSA) (P02768 25-609): as above

Compound | Retention time [1, 7] | PPB from literature [2, 8] | other results
NS(=O)(=O)c1cc2c(cc1C(F)(F)F)NC(Cc1ccccc1)NS2(=O)=O (stereo not shown) [Bendroflumethiazide] | 3.27 min | 94.0% | 
O=C(O)/C=C/c1ccc(O)c(O)c1 [Caffeic acid] | 4.02 min | 66.0% | 
Cn1c(=O)c2c(ncn2C)n(C)c1=O [Caffeine] | 1.18 min | 22.5% | 
Oc1cc(O)c2c(c1)O[C@H](c1ccc(O)c(O)c1)[C@@H](O)C2 [Catechuic acid] | 1.94 min | 20.7% | 
CN(C)CCC(c1ccc(Cl)cc1)c1ccccn1 (stereo not shown) [Chlorphenamine maleate] | 5.93 min | 37.5 (25–50) % | 
Cc1nc(C)c(C)nc1C.Cl [Chuanxiongzine hydrochloride] |  | 44.3% | Retention time [3]: 2.23 min
C[C@@](COC12CCN(CC1)CC2)(c1ccccc1)C1CCCC1 [Comp. A] |  |  | Retention time ([3]; human, 100 µg/mL): 0.76 min; fraction unbound [4]: 0.218
CC(C)[C@]12O[C@H]1[C@@H]1O[C@]13[C@]1(O[C@H]1C[C@H]1C4=C(CC[C@@]13C)C(=O)OC4)[C@@H]2O [Comp. B] |  |  | Retention time [1, 9]: 1.70 min; fraction unbound at 30 min [5]: 0.784
CCN(CC)Cc1cc(-c2nc3c(Cl)nnc(OC)c3n2C)ccc1O [Comp. C] |  |  | Retention time [1, 9]: 1.75 min; fraction unbound at 100 µg/mL [6]: > 0.1; PPB by ultrafiltration [5]: 51.0%; fraction unbound at 30 min [5]: 0.485
Cc1cc(SCc2cnc(-c3ccc(C(F)(F)F)cc3)nc2)ccc1OCC(=O)O [Comp. E] |  |  | fraction unbound at 100 µg/mL [6]: < 0.1; PPB by ultrafiltration [5]: 99.5%; fraction unbound at 30 min [5]: 0.005
CC(=O)NC(Cc1ccc2ccccc2c1)C(=O)NC(Cc1ccc(Cl)cc1)C(=O)NC(Cc1ccccc1)C(=O)NC(CO)C(=O)NC(CCCNC(=N)N)C(=O)NC(Cc1cccnc1)C(=O)NC(CC(C)C)C(=O)NC(CCCNC(=N)N)C(=O)N1CCCC1C(=O)NC(C)C(N)=O (stereo not shown) [Comp. F] (Ac-[2Nal][Phe(4-Cl)]FSR[3Pal]LRPA-NH2; configuration not given here) |  |  | Retention time [1, 9]: 0.81 min; PPB by ultrafiltration [5]: 97.2%
COc1cc(/C=C/C(=O)O)ccc1O [Ferulic acid] |  | 20.6% | Retention time [3]: 1.79 min
OC(Cn1cncn1)(Cn1cncn1)c1ccc(F)cc1F [Fluconazole] | 1.07 min | 11.5 (11-12) % | 
CC(=O)OCC(=O)[C@@]1(O)CC[C@H]2[C@@H]3CCC4=CC(=O)CC[C@]4(C)[C@H]3[C@@H](O)C[C@@]21C [Hydrocortisone acetate] | 0.73 min | 90.0% | 
CN1CCOC(c2ccccc2)c2ccccc2C1 (stereo not shown) [Nefopam hydrochloride] | 7.87 min | 73.5 (71–76) % | PPB from literature ([2]; reported PPB values of reference compounds, ref not printed, listed as nefopam): 71–76%
CCOc1ccc(NC(C)=O)cc1 [Phenacetin] | 3.19 min | 30.0% | 
O=C1NC(=O)C(c2ccccc2)(c2ccccc2)N1 [Phenytoin sodium] | 15.02 min | 90.0% | 
O=C(C1CCCCC1)N1CC(=O)N2CCc3ccccc3C2C1 (stereo not shown) [Praziquantel] | 12.97 min | 80.0% | 
CC(=O)[C@H]1CC[C@H]2[C@@H]3CCC4=CC(=O)CC[C@]4(C)[C@H]3CC[C@]12C [Progesterone] | 50.02 min |  | PPB from literature [2]: 97.0%
CC(C)NCC(O)COc1cccc2ccccc12 (stereo not shown) [Propranolol hydrochloride] | 5.21 min | 92.5 (90–95) % | PPB from literature ([2]; reported PPB values of reference compounds, ref not printed, listed as propranolol hydrochloride): 90–95%
O=c1c(O)c(-c2ccc(O)c(O)c2)oc2cc(O)cc(O)c12 [Quercetin] | 0.72 min | 98.0% | 
CNC(=C[N+](=O)[O-])NCCSCc1ccc(CN(C)C)o1 [Ranitidine hydrochloride] | 1.23 min | 15.0 (12–18) % | 
COC(=O)[C@H]1[C@H]2C[C@@H]3c4[nH]c5cc(OC)ccc5c4CCN3C[C@H]2C[C@@H](OC(=O)c2cc(OC)c(OC)c(OC)c2)[C@@H]1OC [Reserpine] | 0.71 min | 96.0% | 
C[C@@H]1O[C@@H](OC[C@H]2O[C@@H](Oc3c(-c4ccc(O)c(O)c4)oc4cc(O)cc(O)c4c3=O)[C@H](O)[C@@H](O)[C@@H]2O)[C@H](O)[C@H](O)[C@H]1O [Rutoside] | 13.43 min | 85.0 (80–90) % | PPB from literature ([2]; reported PPB values of reference compounds, ref not printed, listed as rutoside): 80–90%
O=C(O)c1ccccc1O [Salicylic acid] |  | 85.0 (80–90) % | 
Nc1ccc(S(=O)(=O)Nc2ncccn2)cc1 [Sulfadiazine] | 1.88 min | 43.0 (38–48) % | 
Cc1cc(C)nc(NS(=O)(=O)c2ccc(N)cc2)n1 [Sulfadimidine] | 6.22 min | 80.0% | 
CCC(=O)O[C@H]1CC[C@H]2[C@@H]3CCC4=CC(=O)CC[C@]4(C)[C@H]3CC[C@]12C [Testosterone propionate] |  | 98.0% | Retention time ([3]; human): 0.74 min
COc1cc(C(=O)O)ccc1O [Vanillic acid] |  | 56.3% | Retention time ([3]; human, 100 µg/mL): 3.11 min
CCN(CC)CCOc1ccc(C(=C(Cl)c2ccccc2)c2ccccc2)cc1 [clomifene citrate] | > 240 min |  | 
